Measurements reported in the supplement of paper PMC10307832.

Columns and labels:
Test in all cases: relative viability (nuclei count vs DMSO), 5 days (fraction); higher = more cells survive
[1] = compound: COc1cc(Nc2ncc(F)c(Nc3ccc4c(n3)NC(=O)C(C)(C)O4)n2)cc(OC)c1OC [R406] + CC(C)C[C@H](NC(=O)[C@H](Cc1ccccc1)NC(=O)c1cnccn1)B(O)O [Bortezomib] (partner 0.002 µM)
Method in brief: (§1)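 One day after seeding in 1536-well plates, lung cancer cell lines were dosed by pin tool. Dosing was either single-drug or a fixed anchor-drug dose plus five library-drug doses (not always all listed) in √10 steps. After 5 days, nuclei were stained in one fix-and-stain step and counted on 4× images, and relative viability is the nuclei count of treated wells over that of vehicle wells, given as the median of duplicate plates.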

[2] = compound: COc1cc(Nc2ncc(F)c(Nc3ccc4c(n3)NC(=O)C(C)(C)O4)n2)cc(OC)c1OC [R406] + C[C@]1(O)C[C@@H](c2nc(-c3ccc4ccc(-c5ccccc5)nc4c3)c3c(N)nccn32)C1 [Linsitinib] (partner 1 µM)
Method in brief: as §1

[3] = compound: O=C(/C=C/c1cccnc1)NCCCCC1CCN(C(=O)c2ccccc2)CC1 [Daporinad] + CC(=O)c1c(C)c2cnc(Nc3ccc(N4CCNCC4)cn3)nc2n(C2CCCC2)c1=O [Palbociclib] (partner 0.5 µM)
Method in brief: as §1

[4] = compound: O=C(/C=C/c1cccnc1)NCCCCC1CCN(C(=O)c2ccccc2)CC1 [Daporinad] + Cc1nc(Nc2ncc(C(=O)Nc3c(C)cccc3Cl)s2)cc(N2CCN(CCO)CC2)n1 [Dasatinib] (partner 0.075 µM)
Method in brief: as §1

Cell Line: HCC-15
- relative viability ([1]; first compound 0.08 µM): 1.02
- relative viability ([1]; first compound 0.253 µM): 1.16
- relative viability ([1]; first compound 0.8 µM): 1.25
- relative viability ([1]; first compound 8 µM): 0.962
- relative viability ([2]; first compound 0.08 µM): 0.856
- relative viability ([2]; first compound 0.253 µM): 0.914
- relative viability ([2]; first compound 0.8 µM): 1.01
- relative viability ([2]; first compound 8 µM): 0.776
- relative viability ([3]; first compound 0.0005 µM): 0.692
- relative viability ([3]; first compound 0.001581 µM): 0.815
- relative viability ([3]; first compound 0.005 µM): 0.829
- relative viability ([3]; first compound 0.01581 µM): 0.755
- relative viability ([4]; first compound 0.0005 µM): 0.62
- relative viability ([4]; first compound 0.001581 µM): 0.707
- relative viability ([4]; first compound 0.005 µM): 0.686
- relative viability ([4]; first compound 0.01581 µM): 0.837

Cell Line: HCC-44
- relative viability ([1]; first compound 0.08 µM): 0.927
- relative viability ([1]; first compound 0.253 µM): 1.07
- relative viability ([1]; first compound 0.8 µM): 1
- relative viability ([1]; first compound 2.53 µM): 0.312
- relative viability ([1]; first compound 8 µM): 0.603
- relative viability ([2]; first compound 0.08 µM): 0.62
- relative viability ([2]; first compound 0.253 µM): 0.729
- relative viability ([2]; first compound 0.8 µM): 0.758
- relative viability ([2]; first compound 2.53 µM): 0.688
- relative viability ([2]; first compound 8 µM): 0.305
- relative viability ([3]; first compound 0.0005 µM): 0.97
- relative viability ([3]; first compound 0.001581 µM): 0.988
- relative viability ([3]; first compound 0.005 µM): 1.04
- relative viability ([3]; first compound 0.01581 µM): 0.963

Cell Line: HCC-78
- relative viability ([1]; first compound 0.08 µM): 0.491
- relative viability ([1]; first compound 0.253 µM): 0.541
- relative viability ([1]; first compound 0.8 µM): 0.51
- relative viability ([1]; first compound 2.53 µM): 0.306
- relative viability ([1]; first compound 8 µM): 0.241
- relative viability ([2]; first compound 0.08 µM): 0.534
- relative viability ([2]; first compound 0.253 µM): 0.394
- relative viability ([2]; first compound 0.8 µM): 0.544
- relative viability ([2]; first compound 2.53 µM): 0.489
- relative viability ([2]; first compound 8 µM): 0.25
- relative viability ([3]; first compound 0.0005 µM): 0.449
- relative viability ([3]; first compound 0.001581 µM): 0.466
- relative viability ([3]; first compound 0.005 µM): 0.522
- relative viability ([3]; first compound 0.01581 µM): 0.497
- relative viability ([4]; first compound 0.0005 µM): 0.363
- relative viability ([4]; first compound 0.005 µM): 0.328
- relative viability ([4]; first compound 0.01581 µM): 0.379

Cell Line: HCC-366
- relative viability ([1]; first compound 0.08 µM): 1.08
- relative viability ([1]; first compound 0.253 µM): 1.02
- relative viability ([1]; first compound 0.8 µM): 1.3
- relative viability ([1]; first compound 8 µM): 0.428
- relative viability ([2]; first compound 0.08 µM): 0.676
- relative viability ([2]; first compound 0.253 µM): 0.776
- relative viability ([2]; first compound 0.8 µM): 0.87
- relative viability ([2]; first compound 8 µM): 0.0785
- relative viability ([3]; first compound 0.0005 µM): 0.451
- relative viability ([3]; first compound 0.005 µM): 0.432
- relative viability ([3]; first compound 0.01581 µM): 0.37
- relative viability ([4]; first compound 0.0005 µM): 0.697
- relative viability ([4]; first compound 0.001581 µM): 0.738
- relative viability ([4]; first compound 0.005 µM): 0.646
- relative viability ([4]; first compound 0.01581 µM): 0.738

Cell Line: HCC-827
- relative viability ([1]; first compound 0.08 µM): 1.06
- relative viability ([1]; first compound 0.253 µM): 1.12
- relative viability ([1]; first compound 0.8 µM): 1.12
- relative viability ([1]; first compound 2.53 µM): 1.11
- relative viability ([1]; first compound 8 µM): 1.02
- relative viability ([2]; first compound 0.08 µM): 0.975
- relative viability ([2]; first compound 0.253 µM): 0.929
- relative viability ([2]; first compound 0.8 µM): 0.937
- relative viability ([2]; first compound 2.53 µM): 0.886
- relative viability ([2]; first compound 8 µM): 0.477
- relative viability ([3]; first compound 0.0005 µM): 0.419
- relative viability ([3]; first compound 0.001581 µM): 0.486
- relative viability ([3]; first compound 0.005 µM): 0.5
- relative viability ([3]; first compound 0.01581 µM): 0.435
- relative viability ([4]; first compound 0.0005 µM): 0.399
- relative viability ([4]; first compound 0.001581 µM): 0.283
- relative viability ([4]; first compound 0.005 µM): 0.294
- relative viability ([4]; first compound 0.01581 µM): 0.344

Cell Line: IA-LM
- relative viability ([1]; first compound 0.08 µM): 0.878
- relative viability ([1]; first compound 0.253 µM): 0.841
- relative viability ([1]; first compound 0.8 µM): 0.815
- relative viability ([1]; first compound 2.53 µM): 0.904
- relative viability ([1]; first compound 8 µM): 0.705
- relative viability ([2]; first compound 0.08 µM): 0.746
- relative viability ([2]; first compound 0.253 µM): 0.901
- relative viability ([2]; first compound 0.8 µM): 0.921
- relative viability ([2]; first compound 2.53 µM): 1.01
- relative viability ([2]; first compound 8 µM): 0.887

Cell Line: LK-2
- relative viability ([2]; first compound 0.08 µM): 0.513
- relative viability ([2]; first compound 0.253 µM): 0.573
- relative viability ([2]; first compound 0.8 µM): 0.641
- relative viability ([2]; first compound 2.53 µM): 0.379
- relative viability ([2]; first compound 8 µM): 0.11
- relative viability ([3]; first compound 0.0005 µM): 0.637
- relative viability ([3]; first compound 0.001581 µM): 0.765
- relative viability ([3]; first compound 0.005 µM): 0.279
- relative viability ([3]; first compound 0.01581 µM): 0.214
- relative viability ([4]; first compound 0.0005 µM): 0.266
- relative viability ([4]; first compound 0.001581 µM): 0.343
- relative viability ([4]; first compound 0.005 µM): 0.33
- relative viability ([4]; first compound 0.01581 µM): 0.193

Cell Line: NCI-H358
- relative viability ([2]; first compound 0.08 µM): 0.889
- relative viability ([2]; first compound 0.253 µM): 0.752
- relative viability ([2]; first compound 0.8 µM): 0.723
- relative viability ([2]; first compound 2.53 µM): 0.418
- relative viability ([2]; first compound 8 µM): 0.336
- relative viability ([3]; first compound 0.0005 µM): 0.111
- relative viability ([3]; first compound 0.001581 µM): 0.135
- relative viability ([3]; first compound 0.005 µM): 0.154
- relative viability ([3]; first compound 0.01581 µM): 0.153
- relative viability ([4]; first compound 0.0005 µM): 0.135
- relative viability ([4]; first compound 0.001581 µM): 0.174
- relative viability ([4]; first compound 0.005 µM): 0.175
- relative viability ([4]; first compound 0.01581 µM): 0.158

Cell Line: NCI-H522
- relative viability ([3]; first compound 0.0005 µM): 1.06
- relative viability ([3]; first compound 0.001581 µM): 1.06
- relative viability ([3]; first compound 0.005 µM): 0.746
- relative viability ([3]; first compound 0.01581 µM): 0.908
- relative viability ([4]; first compound 0.0005 µM): 1.01
- relative viability ([4]; first compound 0.001581 µM): 0.924
- relative viability ([4]; first compound 0.005 µM): 0.88
- relative viability ([4]; first compound 0.01581 µM): 0.843

Cell Line: NCI-H596
- relative viability ([1]; first compound 0.08 µM): 1.1
- relative viability ([1]; first compound 0.253 µM): 1.28
- relative viability ([1]; first compound 0.8 µM): 0.758
- relative viability ([1]; first compound 2.53 µM): 0.984
- relative viability ([1]; first compound 8 µM): 0.475
- relative viability ([2]; first compound 0.08 µM): 1.09
- relative viability ([2]; first compound 0.253 µM): 1.2
- relative viability ([2]; first compound 0.8 µM): 1.2
- relative viability ([2]; first compound 2.53 µM): 0.878
- relative viability ([2]; first compound 8 µM): 0.232
- relative viability ([4]; first compound 0.0005 µM): 0.68
- relative viability ([4]; first compound 0.001581 µM): 0.677
- relative viability ([4]; first compound 0.005 µM): 0.692
- relative viability ([4]; first compound 0.01581 µM): 0.576
